In PubChem BioAssay (NCI):
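Five compound concentrations were applied to cells in 96-well plates for 48 hours; endpoints were derived by simple linear interpolation of the resulting dose-response curve. TGI marks complete inhibition of growth.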

Experiments:
Assay in all cases: DTP human tumour cell line panel, 48 h
NCI-H522 lung = system: NCI-H522 lung
SK-MEL-28 melanoma = system: SK-MEL-28 melanoma
LOX IMVI melanoma = system: LOX IMVI melanoma
UACC-257 melanoma = system: UACC-257 melanoma
KM12 colon = system: KM12 colon
LXFL 529 NSCLC = system: LXFL 529 NSCLC
SNB-75 CNS = system: SNB-75 CNS
RXF 393 renal = system: RXF 393 renal
SK-MEL-5 melanoma = system: SK-MEL-5 melanoma
UO-31 renal = system: UO-31 renal
HCT-15 colon = system: HCT-15 colon
DMS 114 small cell lung = system: DMS 114 small cell lung
M14 melanoma = system: M14 melanoma
RXF-631 renal = system: RXF-631 renal
SF-268 CNS = system: SF-268 CNS
SK-MEL-2 melanoma = system: SK-MEL-2 melanoma
NCI-H23 lung = system: NCI-H23 lung
HCC-2998 colon = system: HCC-2998 colon
NCI-H226 lung = system: NCI-H226 lung
RPMI-8226 leukemia = system: RPMI-8226 leukemia
HOP-62 NSCLC = system: HOP-62 NSCLC
DMS 273 small cell lung = system: DMS 273 small cell lung
CAKI-1 renal = system: CAKI-1 renal
NCI-H460 lung = system: NCI-H460 lung
KM20L2 colon = system: KM20L2 colon
OVCAR-4 ovarian = system: OVCAR-4 ovarian
COLO 205 colon = system: COLO 205 colon
SNB-19 CNS = system: SNB-19 CNS
786-0 renal = system: 786-0 renal
SN12C renal = system: SN12C renal
CCRF-CEM leukemia = system: CCRF-CEM leukemia
SW-620 colon = system: SW-620 colon
SK-OV-3 ovarian = system: SK-OV-3 ovarian
OVCAR-8 ovarian = system: OVCAR-8 ovarian
ACHN renal = system: ACHN renal
OVCAR-3 ovarian = system: OVCAR-3 ovarian
SF-539 CNS = system: SF-539 CNS
SNB-78 CNS = system: SNB-78 CNS
SF-295 CNS = system: SF-295 CNS
HT29 colon = system: HT29 colon
HL-60(TB) leukemia = system: HL-60(TB) leukemia
A498 renal = system: A498 renal
HOP-92 NSCLC = system: HOP-92 NSCLC
DLD-1 colon = system: DLD-1 colon
HOP-18 NSCLC = system: HOP-18 NSCLC
MALME-3M melanoma = system: MALME-3M melanoma
K-562 leukemia = system: K-562 leukemia
IGROV1 ovarian = system: IGROV1 ovarian
A549 NSCLC = system: A549 NSCLC
OVCAR-5 ovarian = system: OVCAR-5 ovarian
HCT-116 colon = system: HCT-116 colon
U251 CNS = system: U251 CNS
TK-10 renal = system: TK-10 renal
MOLT-4 leukemia = system: MOLT-4 leukemia
SR leukemia = system: SR leukemia
UACC-62 melanoma = system: UACC-62 melanoma
M19-MEL melanoma = system: M19-MEL melanoma
EKVX NSCLC = system: EKVX NSCLC

O=c1c(O)c(-c2ccccc2)n(O)c2ccc(Cl)cc12
TGI (NCI-H522 lung): 51.7 µM | TGI (SK-MEL-28 melanoma): > 100 µM | TGI (LOX IMVI melanoma): 27.2 µM | TGI (UACC-257 melanoma): > 100 µM | TGI (KM12 colon): 80.9 µM | TGI (LXFL 529 NSCLC): 64 µM | TGI (SNB-75 CNS): 80.8 µM | TGI (RXF 393 renal): 63 µM | TGI (SK-MEL-5 melanoma): 42.1 µM | TGI (UO-31 renal): > 100 µM | TGI (HCT-15 colon): 49.6 µM | TGI (DMS 114 small cell lung): 54.9 µM | TGI (M14 melanoma): > 100 µM | TGI (RXF-631 renal): > 100 µM | TGI (SF-268 CNS): > 100 µM | TGI (SK-MEL-2 melanoma): 58.6 µM | TGI (NCI-H23 lung): > 100 µM | TGI (HCC-2998 colon): 40.1 µM | TGI (NCI-H226 lung): 45.1 µM | TGI (RPMI-8226 leukemia): > 100 µM | TGI (HOP-62 NSCLC): 60.3 µM | TGI (DMS 273 small cell lung): 58.6 µM | TGI (CAKI-1 renal): 71.1 µM | TGI (NCI-H460 lung): 69.2 µM | TGI (KM20L2 colon): 83.9 µM | TGI (OVCAR-4 ovarian): > 100 µM | TGI (COLO 205 colon): > 100 µM | TGI (SNB-19 CNS): > 100 µM | TGI (786-0 renal): > 100 µM | TGI (SN12C renal): 49.8 µM | TGI (CCRF-CEM leukemia): > 100 µM | TGI (SW-620 colon): 34.5 µM | TGI (SK-OV-3 ovarian): 78.6 µM | TGI (OVCAR-8 ovarian): 52.1 µM | TGI (ACHN renal): 74 µM | TGI (OVCAR-3 ovarian): > 100 µM | TGI (SF-539 CNS): 48 µM | TGI (SNB-78 CNS): > 100 µM | TGI (SF-295 CNS): > 100 µM | TGI (HT29 colon): > 100 µM | TGI (HL-60(TB) leukemia): 62.8 µM | TGI (A498 renal): 78.4 µM | TGI (HOP-92 NSCLC): 96.5 µM | TGI (DLD-1 colon): > 100 µM | TGI (HOP-18 NSCLC): > 100 µM | TGI (MALME-3M melanoma): > 100 µM | TGI (K-562 leukemia): > 100 µM | TGI (IGROV1 ovarian): 89.9 µM | TGI (A549 NSCLC): > 100 µM | TGI (OVCAR-5 ovarian): 95.3 µM | TGI (HCT-116 colon): 24.6 µM | TGI (U251 CNS): > 100 µM | TGI (TK-10 renal): 72.3 µM | TGI (MOLT-4 leukemia): > 100 µM | TGI (SR leukemia): > 100 µM | TGI (UACC-62 melanoma): 55.3 µM

COC1=CC(=C(C#N)C(=Nc2ccccc2)SC)C=C(OC)C1=O
TGI (M19-MEL melanoma): > 100 µM | TGI (NCI-H522 lung): > 100 µM | TGI (SK-MEL-28 melanoma): > 100 µM | TGI (LOX IMVI melanoma): > 100 µM | TGI (UACC-257 melanoma): > 100 µM | TGI (KM12 colon): > 100 µM | TGI (LXFL 529 NSCLC): 36.2 µM | TGI (SNB-75 CNS): > 100 µM | TGI (RXF 393 renal): 78 µM | TGI (SK-MEL-5 melanoma): 42.7 µM | TGI (UO-31 renal): > 100 µM | TGI (HCT-15 colon): > 100 µM | TGI (RXF-631 renal): > 100 µM | TGI (NCI-H23 lung): > 100 µM | TGI (HCC-2998 colon): > 100 µM | TGI (RPMI-8226 leukemia): 52.2 µM | TGI (DMS 273 small cell lung): > 100 µM | TGI (CAKI-1 renal): > 100 µM | TGI (NCI-H460 lung): > 100 µM | TGI (COLO 205 colon): > 100 µM | TGI (EKVX NSCLC): > 100 µM | TGI (786-0 renal): > 100 µM | TGI (SN12C renal): > 100 µM | TGI (CCRF-CEM leukemia): 43.5 µM | TGI (SW-620 colon): > 100 µM | TGI (SK-OV-3 ovarian): > 100 µM | TGI (OVCAR-8 ovarian): > 100 µM | TGI (ACHN renal): > 100 µM | TGI (OVCAR-3 ovarian): > 100 µM | TGI (SF-539 CNS): > 100 µM | TGI (SNB-78 CNS): > 100 µM | TGI (SF-295 CNS): > 100 µM | TGI (HT29 colon): > 100 µM | TGI (A498 renal): 80 µM | TGI (HOP-92 NSCLC): 9.97 µM | TGI (DLD-1 colon): 77.3 µM | TGI (HOP-18 NSCLC): > 100 µM | TGI (MALME-3M melanoma): > 100 µM | TGI (K-562 leukemia): 63.1 µM | TGI (IGROV1 ovarian): > 100 µM | TGI (A549 NSCLC): > 100 µM | TGI (HCT-116 colon): > 100 µM | TGI (U251 CNS): 2.62 µM | TGI (TK-10 renal): > 100 µM | TGI (MOLT-4 leukemia): 53.1 µM | TGI (UACC-62 melanoma): > 100 µM

CCOCc1cc(=O)c2c(O)cc3c(c2o1)CCC(C)(C)O3
TGI (M19-MEL melanoma): > 100 µM | TGI (NCI-H522 lung): > 100 µM | TGI (SK-MEL-28 melanoma): > 100 µM | TGI (LOX IMVI melanoma): > 100 µM | TGI (LXFL 529 NSCLC): > 100 µM | TGI (SNB-75 CNS): > 100 µM | TGI (SK-MEL-5 melanoma): > 100 µM | TGI (UO-31 renal): > 100 µM | TGI (HCT-15 colon): > 100 µM | TGI (DMS 114 small cell lung): > 100 µM | TGI (M14 melanoma): > 100 µM | TGI (RXF-631 renal): > 100 µM | TGI (SF-268 CNS): > 100 µM | TGI (SK-MEL-2 melanoma): > 100 µM | TGI (NCI-H23 lung): > 100 µM | TGI (NCI-H226 lung): > 100 µM | TGI (RPMI-8226 leukemia): > 100 µM | TGI (DMS 273 small cell lung): > 100 µM | TGI (CAKI-1 renal): > 100 µM | TGI (NCI-H460 lung): > 100 µM | TGI (KM20L2 colon): > 100 µM | TGI (COLO 205 colon): > 100 µM | TGI (SNB-19 CNS): > 100 µM | TGI (EKVX NSCLC): > 100 µM | TGI (SN12C renal): > 100 µM | TGI (CCRF-CEM leukemia): > 100 µM | TGI (SW-620 colon): > 100 µM | TGI (SK-OV-3 ovarian): > 100 µM | TGI (OVCAR-8 ovarian): > 100 µM | TGI (ACHN renal): > 100 µM | TGI (OVCAR-3 ovarian): > 100 µM | TGI (SF-539 CNS): > 100 µM | TGI (SNB-78 CNS): > 100 µM | TGI (SF-295 CNS): > 100 µM | TGI (HT29 colon): > 100 µM | TGI (HL-60(TB) leukemia): > 100 µM | TGI (A498 renal): > 100 µM | TGI (HOP-92 NSCLC): > 100 µM | TGI (DLD-1 colon): > 100 µM | TGI (HOP-18 NSCLC): > 100 µM | TGI (MALME-3M melanoma): > 100 µM | TGI (K-562 leukemia): > 100 µM | TGI (IGROV1 ovarian): > 100 µM | TGI (U251 CNS): > 100 µM | TGI (TK-10 renal): > 100 µM | TGI (MOLT-4 leukemia): > 100 µM | TGI (UACC-62 melanoma): > 100 µM
